Where “and” joins values, the source holds several entries; their conditions need not be identical. Equal entries are not always repeated. Entries after “also recorded” stand apart in the source; their conditions may differ.
How the values were obtained:
[1] = Visceral sensitivity: abdominal contractures produced by rectal distension after acetic acid irritation; assay type: in vivo; details: rat, 10 min distension, mean of five rats, placebo 23.8 ± 1.6, * p < 0.05 vs placebo
Text: The first model consists in observing, in the rat, the abdominal contractures produced by a rectal distension applied to a mucous membrane which has been irritated beforehand. The number of contractures is proportional to the intensity of the pain experienced. A similar model has been described in Neurogastroenterol. and Mot. (1994), 6, 140, where it is shown that the products which decrease the perception of pain in man decrease the number of contractures observed in the rat.
Male Sprague-Dawley rats weighing 180 g are deprived of food for 12 hours. Under slight fluothane anaesthesia, an intrarectal probe is introduced (5 cm from the anus) and 1.5 ml of 1% dilute acetic acid are injected. The acid immediately flows out via the anus. This rapid contact of the acid makes it possible to irritate the mucous membrane (model for rectal colitis). 1 h 30 after irritation, a small latex balloon (diameter when empty 2 mm, length 1 cm), mounted on a polyurethane catheter (int. diameter 1 mm), is introduced into the rectum (5 cm from the anus) under slight fluothane anaesthesia. The catheter is attached to the base of the tail with adhesive tape and protected by a glass tube. The test product is administered by force feeding and the rat is then introduced into a crystallizing dish covered with a grid. The free ends of the tube and of the catheter are passed through the grid in order to carry out the dilations.
A distension is carried out 2 h 30 after irritating the rectum. The small balloon is dilated with 1.5 ml of distilled water (intracolic pressure equal to 60 mm Hg on average). Dilation is maintained for 10 minutes, during which the abdominal contractures are counted. The small balloon is then deflated by sucking off the distilled water.
They are expressed by the mean number of contractures observed with respect to five rats for the 10 minutes during which they are subjected to a distension.

[2] = Ulcerative colitis induced by intracolic trinitrobenzenesulphonic acid (TNB): weight, macroscopic and histological analysis of colon; assay type: in vivo, rat; details: for Mean weight of the animals: in g
Text: A model for ulcerative colitis induced in the rat by an intracolic instillation of trinitrobenzenesulphonic acid has already been described, for example in Gut (1992), 33, 1498-1503.
The beneficial effect of a treatment on the development of this colitis can be evaluated, on the one hand, by the overall state of health of the animal, represented for example by the change in weight, and, on the other hand, by a histological study of the colon at the end of the experiment.
Male Sprague-Dawley rats (140-150 g), deprived of food since the previous day, are subjected, under general anaesthesia (isoflurane), to irritation of the mucous membrane of the distal colon (7 cm from the anus) with 1 ml of a 50 mg/ml aqueous trinitrobenzenesulphonic acid (TNB) solution. On the following day, the rats are randomized in two equal-sized groups (n=7) which then receive the treatment (placebo or product) by forcefeeding, mornings and evenings. The products are administered at 1 mg/kg p.o. twice daily.
The treatment is administered for the ten days which follow irritation of the colon. The animals are weighed every morning from D5 to D10. The animals are deprived of food on D9 and humanely killed on D10. The colons are removed and macroscopically and then histologically examined.
The macroscopic appearance of the colons was graded as follows:
Sections of the colon are fixed with formaldehyde and enclosed in paraffin blocks. 5 μm sections are prepared, stained with haemalum-eosin and evaluated by optical microscopy according to the following gradings:
The colon was divided into three mucous, submucous and muscular layers and each layer was graded according to the preceding criteria.
The sum of the gradings attributed to each substructure defines, per animal, an index which takes into account both the afflux of the inflammatory cells and the architectural distortion.

5-HT3 receptors [3] = biological target: T1, 5-HT3 receptors (Mus musculus, UniProt P23979); assay: Affinity for 5-HT3 receptors, membrane preparations of NG 108-15 cells, tritiated BRL 43694 as ligand; assay type: binding; details: NG 108-15 cell membranes
T1 sequence (P23979 24-489): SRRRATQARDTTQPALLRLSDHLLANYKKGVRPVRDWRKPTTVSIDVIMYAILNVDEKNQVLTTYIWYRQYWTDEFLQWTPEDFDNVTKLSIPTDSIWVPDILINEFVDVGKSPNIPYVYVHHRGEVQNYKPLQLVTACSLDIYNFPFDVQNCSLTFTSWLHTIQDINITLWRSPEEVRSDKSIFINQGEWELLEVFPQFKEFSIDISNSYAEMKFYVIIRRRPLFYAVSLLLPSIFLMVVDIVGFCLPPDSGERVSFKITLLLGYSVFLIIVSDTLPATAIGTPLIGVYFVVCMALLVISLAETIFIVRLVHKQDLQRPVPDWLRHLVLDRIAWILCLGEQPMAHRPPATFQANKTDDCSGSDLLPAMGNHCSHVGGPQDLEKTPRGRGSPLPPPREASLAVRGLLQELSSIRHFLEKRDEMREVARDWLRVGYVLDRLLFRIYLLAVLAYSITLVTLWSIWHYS
Experimental: The affinity of the compounds for 5-HT3 receptors was measured according to the method described in Bioch. Pharmacol. (1990), 40, (7), 1541-1550, by using membrane preparations of NG 108-15 cells and tritiated BRL 43694 as specific ligand.

5-HT3 receptors [4] = biological target: T2, 5-HT3 receptors (Rattus norvegicus, UniProt P35563); assay: Bezold-Jarisch reflex: inhibition of bradycardia induced by serotonin (5-HT3 antagonist activity in vivo); details: iv; read-out: IC50 for antagonism of serotonin-induced bradycardia
T2 construct: from tissue; host or cells: whole animal (endogenous receptor)
T2 sequence (P35563 24-483): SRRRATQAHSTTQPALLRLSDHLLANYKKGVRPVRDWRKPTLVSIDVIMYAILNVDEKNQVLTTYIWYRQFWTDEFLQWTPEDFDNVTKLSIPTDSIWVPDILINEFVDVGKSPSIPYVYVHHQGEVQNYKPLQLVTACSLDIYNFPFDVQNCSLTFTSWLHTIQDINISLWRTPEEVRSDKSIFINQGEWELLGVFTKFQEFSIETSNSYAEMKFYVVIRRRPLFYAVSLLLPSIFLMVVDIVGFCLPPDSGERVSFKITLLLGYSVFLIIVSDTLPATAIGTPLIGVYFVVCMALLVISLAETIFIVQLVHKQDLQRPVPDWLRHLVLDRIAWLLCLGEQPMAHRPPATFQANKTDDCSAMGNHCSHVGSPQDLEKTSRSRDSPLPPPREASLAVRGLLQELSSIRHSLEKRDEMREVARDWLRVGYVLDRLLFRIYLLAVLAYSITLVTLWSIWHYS
Experimental: The 5-HT3 antagonist activity of products was evaluated in vivo by measuring their property of inhibiting a bradycardia induced by serotonin, according to the method described in J. Pharm. & Exp. Therap. (1989), 248, 197-201.

COc1cc(N)c(Cl)cc1C(=O)N[C@@H]1CCCC[C@@H]1CN1CCC(O)CC1 (relative stereo) [Compound 2]
No. of contractures ± standard deviation ([1]; 0.3 mg/kg p.o.): 9.2 ± 5.3

COc1cc(N)c(Cl)cc1C(=O)N[C@@H]1CCCC[C@@H]1CN1CCC(CO)CC1 (relative stereo) [Compound 3]
No. of contractures ± standard deviation ([1]; 0.3 mg/kg p.o.): 13.2 ± 2.4

COc1cc(N)c(Cl)cc1C(=O)N[C@@H]1CCCC[C@@H]1CN1CCC(C)(C)CC1 (relative stereo) [Compound 4]
No. of contractures ± standard deviation ([1]; 0.3 mg/kg p.o.): 10.6 ± 4.2

COc1cc(N)c(Cl)cc1C(=O)N[C@@H]1CCCC[C@@H]1CN1CCC(C(C)(C)C)CC1 (relative stereo) [Compound 5]
No. of contractures ± standard deviation ([1]; 0.3 mg/kg p.o.): 10.6 ± 3.8

CC1CCN(C[C@H]2CCCC[C@H]2NC(=O)c2cc(Cl)c(N)cc2OC(C)C)CC1 (relative stereo) [Compound 7]
No. of contractures ± standard deviation ([1]; 0.3 mg/kg p.o.): 7.6 ± 0.5

COc1cc(N)c(Cl)cc1C(=O)N[C@@H]1CCCC[C@@H]1CN1CCC(C)CC1 [Compound 1]
No. of contractures ± standard deviation ([1]; 0.3 mg/kg p.o.): 3.4 ± 2.1

CC1CCN(C[C@H]2CCCC[C@H]2NC(=O)c2cc(Cl)c(N)cc2OCC2CC2)CC1 [Compound 6]
No. of contractures ± standard deviation ([1]; 0.1 mg/kg p.o.): 3.3 ± 1.9
No. of contractures ± standard deviation ([1]; 0.3 mg/kg p.o.): 7.3 ± 2.6
No. of contractures ± standard deviation ([1]; 1 mg/kg p.o.): 9.4
change in weight versus placebo ([2]; 1 mg/kg p.o. twice daily, TNB colitis): significantly improved change in weight
Mean weight of the animals ([2]; 5 days after treatment with TNB, 1 mg/kg p.o. twice daily, placebo 130 ± 8): 153 ± 15
Mean weight of the animals ([2]; 6 days after treatment with TNB, 1 mg/kg p.o. twice daily, placebo 139 ± 18, * p < 0.05): 177 ± 23
Mean weight of the animals ([2]; 7 days after treatment with TNB, 1 mg/kg p.o. twice daily, placebo 142 ± 20, * p < 0.05): 186 ± 27
Mean weight of the animals ([2]; 8 days after treatment with TNB, 1 mg/kg p.o. twice daily, placebo 147 ± 23, * p < 0.05): 194 ± 34
Mean weight of the animals ([2]; 9 days after treatment with TNB, 1 mg/kg p.o. twice daily, placebo 158 ± 30, * p < 0.05): 206 ± 39
Index (histological; sum of gradings of mucous, submucous and muscular layers per animal) ([2]; D10, 1 mg/kg p.o. twice daily, each index value shared by the number of animals in the column beside it): 11 and 3 and 1 and 0
Number of animals at macroscopic colon Stage 0 ([2]; Stage 0: no trace of irritation, D10, 1 mg/kg p.o. twice daily, placebo 0): 0
Number of animals at macroscopic colon Stage 1 ([2]; Stage 1: slightly vasodilated mucous membrane, D10, placebo 0): 1
Number of animals at macroscopic colon Stage 2 ([2]; Stage 2: vasodilated mucous membrane and adhesions, D10, placebo 0): 4
Number of animals at macroscopic colon Stage 3 ([2]; Stage 3: haemorrhagic and sclerotic mucous membrane and adhesions, D10, placebo 3): 2
Number of animals at macroscopic colon Stage 4 ([2]; Stage 4: ulcerated and haemorrhagic mucous membrane and adhesions, D10, placebo 3): 0
seriousness of the macroscopic colon lesions versus placebo ([2]; chi-squared test, Stages 1 and 2 vs Stages 3 and 4): seriousness of the lesions is significantly greater with the placebo than with Compound 6; also recorded: lesional appearance of the colon is less serious
inflammatory state of the colon (histology) versus placebo ([2]; chi-squared test, indices 0 to 5 vs 6 to 12): inflammatory state is significantly more serious treated with the placebo than treated with Compound 6; also recorded: decrease in the afflux of the inflammatory cells
size of the class combining histological indices 0 to 5 ([2]; number of animals, placebo 0): 5
size of the class of macroscopic Stages 1 and 2 ([2]; number of animals, placebo 0): 5
size of the class combining histological indices 6 to 12 ([2]; number of animals, placebo 6): 2
size of the class of macroscopic Stages 3 and 4 ([2]; number of animals, placebo 6): 2

CC1CCN(C[C@H]2CCCC[C@H]2NC(=O)c2cc(Cl)c(N)cc2OC2CCCC2)CC1 [Compound 8]
No. of contractures ± standard deviation ([1]; 0.3 mg/kg p.o.): 9.2 ± 1.3

CC1CCN(C[C@H]2CCCC[C@@H]2NC(=O)c2cc(Cl)c(N)cc2OCC2CC2)CC1 [Compound 9]
No. of contractures ± standard deviation ([1]; 0.3 mg/kg p.o.): 6.3 ± 3.5

Cc1nccn1CC1CCc2c(c3ccccc3n2C)C1=O (stereo not shown) [ondansetron]
Ki (5-HT3 receptors [3]): 16 nM
ED50 (5-HT3 receptors [4]): ~3 µg/kg
